From patent US10759740B2, “Antibacterial agents” (Rutgers, The State University of New Jersey, priority 2016, dated 2020)

Legend:
E. coli = test: SEM and TEM of treated bacteria; type: cell-based, Escherichia coli; conditions: at MIC, 1 h
Procedure: (§1) Bacteria were grown to the mid-exponential growth phase. Silicon wafers were submerged in the bacterial solutions in the presence or absence of CAMs at their respective MICs and incubated for 1 h. 0.25% glucose was added to facilitate attachment. The bacteria on wafers were fixed in 2.5% glutaraldehyde for 1 h at room temperature, washed three times with PBS, and postfixed 1% osmium tetroxide. The samples were then dehydrated in a graded series of ethanol solutions (50%, 70%, 80%, 95%, 100%), dried with graded hexamethyldisilazane (50%, 100%), and left to air dry for two days. After drying, the wafers were mounted on stub and sputter-coated with 20 nm gold prior to inspection under microscope (Zeiss Sigma Field Emission SEM, Carl Zeiss, Ontario, Calif.) at 5 kV.
(§2) Bacteria were grown as described above for SEM sample preparation. In brief, bacteria were incubated in the presence or absence of CAMs at their respective MICs for 1 h. After centrifugation at 500×g for 10 min, the resulting pellet was fixed in 2.5% glutaraldehyde, washed three times with PBS, and postfixed with 1% osmium tetroxide. The samples were then dehydrated with graded ethanol series (50%, 70%, 80%, 95%, 100%) and embedded in epoxy resin (Dr. Spurr's kit, Electron Microscopy Sciences, Hatfield, Pa.). Ultrathin sections of the cells were stained with 1% uranyl acetate. […]

[1] = system: G. vaginalis biofilm formation; test: Minimum biofilm inhibition concentration (MIC-B), crystal violet; type: cell-based, Gardnerella vaginalis; conditions: 48 h, vs untreated control, FIG. 7
Procedure: The MIC-B50 of an antimicrobial is defined as the lowest concentration of the antimicrobial that inhibits 50% of treated biofilm compared to the untreated one (control), while MIC-B90 was defined as the minimum biofilm inhibitory concentration that inhibits 90% (Sandoe et al., 2006. J Antimicrob Chemother 57:767-770). G. vaginalis cells were grown overnight in sBHI broth anaerobically at 37° C. The overnight culture was diluted in BHIG broth 1:100 (v:v) to achieve ˜10^6 CFU/ml for the biofilm inhibition assay. The CAms were diluted twofold with BHIG into a 96-well tissue culture microplate (Falcon, Corning Incorporated, Corning, N.Y., USA) with a final volume of 100 μl in each well. Aliquots of 100 μl of diluted cell suspensions at 10^6 CFU/ml were added separately to different concentrations of CAms in a 96-well tissue culture microplate. The microplate was incubated for 48 h at 37° C. under anaerobic conditions. After incubation, the number of non-adherent bacterial cells was counted using a spot plate method and compared with the number of cells of the non-treated control. Then, the intact biofilm was stained with 0.1% crystal violet.
This method was performed as described by Borucki et al. with minor modifications (Borucki et al., 2003. Appl Environ Microbiol 69:7336-7342). Briefly, after counting the non-adherent cells, the biofilm was fixed at 60° C. for 60 min. in an inverted position using an incubator (New Brunswick Scientific Co., Inc., NJ, USA). In each well, 125 μl of 0.1% crystal violet was added and left at room temperature for 20 min. Each well was then rinsed three to four times with 200 μl of ddH2O and left for 15 min. to dry at room temperature. To solubilize the biofilm-stained CV, 200 μl of 95% ethanol in water was added and the microplate was incubated at 4° C. for 30 min. One hundred microliter samples of solubilized CV were transferred to a new flat-bottomed 96-well microplate. The absorbance of each sample was measured using a plate reader at 595 nm (Model 550, Bio-Rad Laboratories, Hercules, Calif., USA).

S. aureus = test: SEM and TEM of treated bacteria; type: cell-based, Staphylococcus aureus; conditions: at MIC, 1 h
Procedure: as §1, §2

[2] = system: L. monocytogenes pre-formed biofilms; test: MBC-B against pre-formed biofilms (Example 2); type: cell-based; conditions: pre-formed biofilm, ≥3 log reduction in viable cells
Procedure: (§3) The minimum biofilm bactericidal concentrations (MBC-Bs) of the cationic amphiphiles against pre-formed biofilms of L. monocytogenes and G. vaginalis were identified. The biofilms of the two targeted microorganisms were grown in 96-well plates according to established methodology for Gram-positive and Gram-variable bacteria (Tabak et al., FEMS microbiology letters. 2009; 301(1):69-76). To identify the reduction in the number of biofilm-associated viable cells treated with different concentrations of cationic amphiphiles, the spot plate method was used (Turovskiy et al., Infectious diseases in obstetrics and gynecology. 2012; 2012:284762, 9 pages). In brief, biofilms were washed, disrupted, diluted 10^1-10^8 times with fresh medium and the samples plated on suitable solid medium.

[3] = system: G. vaginalis pre-formed biofilms; test: MBC-B against pre-formed biofilms (Example 2); type: cell-based; conditions: pre-formed biofilm, ≥3 log reduction in viable cells
Procedure: as §3

[4] = system: G. vaginalis pre-formed biofilms; test: Biofilm removal (FIG. 5); type: cell-based; conditions: 250 μg/mL against pre-formed biofilms

| Structure (SMILES) | ultrastructural changes (TEM) (E. coli) | MIC-B: concentration preventing 50% or >50% of biofilm formation [1] | ultrastructural changes (TEM) (S. aureus) | MBC-B, L. monocytogenes [2] | MBC-B G. vaginalis [3] | removal of biofilm structures [4] |
| --- | --- | --- | --- | --- | --- | --- |
| CCCCCCCCCCOC(C(=O)NCCN)C(OCCCCCCCCCC)C(=O)NCCN.Cl.Cl (stereo not shown) [5b] | extensive ultrastructural damage | 1.6 µM | profound internal damage | approximately 250 μg/mL | approximately 31.25 μg/mL | up to 70% |
| CCCCCCCC(=O)OC(C(=O)NCCN)C(OC(=O)CCCCCCC)C(=O)NCCN.Cl.Cl (stereo not shown) [8a] |  | 7.2 µM |  |  |  |  |
| CCCCCCCCCC(=O)OC(C(=O)NCCN)C(OC(=O)CCCCCCCCC)C(=O)NCCN.Cl.Cl (stereo not shown) [8b] |  | 3.2 µM |  | approximately 250 μg/mL | approximately 31.25 μg/mL |  |
